{
  "source": "patent US20250114388A1",
  "about": "“ACTIVE PHARMACEUTICAL INGREDIENT COMPOSITIONS AND PREPARATION AND USES THEREOF” (Dr. Anti Fungus, LLC, priority 2023, published 2025)",
  "origin": "cited, not measured here",
  "note": "*1 amine or outer side, *2 acyl side, *3 side chain or, on linkers, in order; H or OH if unused. Where a SMILES comes first, the peptide text is derived from it. Bridges are numbered along the chain shown (N, C = ends). [ ]: non-standard residue; d: D form. The star is where a group is joined. pTerphenylCO(4''-OnC5H11) = CCCCCOc1ccc(-c2ccc(-c3ccc(C(=O)*)cc3)cc2)cc1; Orn(4R-OH,5R-OH) = O=C([C@H](C[C@@H](O)[C@@H](O)N[*:3])N[*:1])[*:2]; hTyr(3S-OH,4S-OH) = N[C@H](C(=O)O)[C@H](O)[C@@H](O)c1ccc(O)cc1; Pro(3S-OH,4S-Me) = C[C@H]1CN[C@H](C(=O)O)[C@H]1O; Hyp = O=C(O)[C@@H]1C[C@@H](O)CN1",
  "data": [
    {"values": [
      {"smiles": "C[C@@H]1[C@H](O)[C@@H](C)/C=C/C=C/C=C/C=C/C=C/C=C/C=C/[C@H](O[C@@H]2O[C@H](C)[C@@H](O)[C@H](N)[C@@H]2O)C[C@@H]2O[C@](O)(C[C@@H](O)C[C@@H](O)[C@H](O)CC[C@@H](O)C[C@@H](O)CC(=O)O[C@H]1C)C[C@H](O)[C@H]2C(=O)O", "note": "[amphotericin B]", "solubility in water": "insoluble"},
      {"smiles": "CCCCCOc1ccc(-c2ccc(-c3ccc(C(=O)N[C@H]4C[C@@H](O)[C@@H](O)NC(=O)[C@@H]5[C@@H](O)[C@@H](C)CN5C(=O)[C@H]([C@@H](C)O)NC(=O)[C@H]([C@H](O)[C@@H](O)c5ccc(O)cc5)NC(=O)[C@@H]5C[C@@H](O)CN5C(=O)[C@H]([C@@H](C)O)NC4=O)cc3)cc2)cc1", "note": "[anidulafungine] ({pTerphenylCO(4''-OnC5H11)}-[Orn(4R-OH,5R-OH)]T[Hyp][hTyr(3S-OH,4S-OH)]T[Pro(3S-OH,4S-Me)]; lactam 1-C)", "solubility in water": "insoluble"},
      {"smiles": "Clc1ccccc1C(c1ccccc1)(c1ccccc1)n1ccnc1", "note": "[clotrimazole]", "solubility in water": "insoluble"},
      {"smiles": "Clc1ccc(COC(Cn2ccnc2)c2ccc(Cl)cc2Cl)cc1", "note": "(centres unmarked) [econazole]", "solubility in water": "insoluble"},
      {"smiles": "OC(Cn1cncn1)(Cn1cncn1)c1ccc(F)cc1F", "note": "[fluconazole]", "solubility in water": "sparingly soluble"},
      {"smiles": "CCC(C)n1ncn(-c2ccc(N3CCN(c4ccc(OCC5COC(Cn6cncn6)(c6ccc(Cl)cc6Cl)O5)cc4)CC3)cc2)c1=O", "note": "(centres unmarked) [itraconazole]", "solubility in water": "insoluble"},
      {"smiles": "CC(=O)N1CCN(c2ccc(OCC3COC(Cn4ccnc4)(c4ccc(Cl)cc4Cl)O3)cc2)CC1", "note": "(centres unmarked) [ketoconazole]", "solubility in water": "insoluble"},
      {"smiles": "Clc1ccc(COC(Cn2ccnc2)c2ccc(Cl)cc2Cl)c(Cl)c1", "note": "(centres unmarked) [miconazole]", "solubility in water": "insoluble"},
      {"smiles": "C[C@@H]1[C@H](O)[C@@H](C)/C=C/C=C/CC/C=C/C=C/C=C/C=C/C(O[C@H]2O[C@H](C)[C@@H](O)[C@H](N)[C@@H]2O)CC2O[C@](O)(CC(O)C(O)CCC(O)CC(O)CC(O)CC(=O)O[C@H]1C)CC(O)C2C(=O)O", "note": "(some centres unmarked) [nystatin]", "solubility in water": "sparingly soluble"},
      {"smiles": "CN(C/C=C/C#CC(C)(C)C)Cc1cccc2ccccc12", "note": "[terbinafine]", "solubility in water": "sparingly soluble"},
      {"smiles": "Cc1cccc(N(C)C(=S)Oc2ccc3ccccc3c2)c1", "note": "[tolnaftate]", "solubility in water": "insoluble"}
    ]}
  ]
}
